Assay results taken from patent publication US4293504A, “Process for preparing optically active α-cyano-3-(4-halogenophenoxy)-benzyl 2-(4-chlorophenyl)isovalerate” (Sumitomo Chemical Company, Limited, priority 1979, dated 1981).
In brackets after ≈: the same amount, converted by molar mass.

What was measured:
tobacco cutworm = assay: whole plant or invertebrate; format: in vivo; conditions: for LC50: 48 h, read-out: LC50 (median lethal concentration); for Relative Efficacy (reference compound: 100): from LC50, tobacco cutworm, reference = racemate with same X
Description: (§1) 10 parts of each of the compounds of this invention, (1), (2), (3), (4) and (5) was mixed with 15 parts of Sorpol 3005x (a registered trademark of Toho Chemical Co., Ltd.) and 75 parts of xylene, and the mixture was thoroughly stirred to provide a 10% emulsifiable concentrate.
(§2) In the following test examples, the "racemate" (conventional product) of each of the compounds of the formula (I) was formulated in the same procedures as in each test example and then used as a reference compound.
Each of the emulsifiable concentrates prepared from the compounds of this invention, (1), (2), (3), (4) and (5) in the procedures described in Formulation Example 1 was diluted with water to a predetermined concentration, and a sticker containing 20% of an alkylphenol polyethylene glycol ether and 12% of a salt of lignin sulfonic acid was added to the solution in an amount of 1 ml per 3,000 ml of the solution. […] Ten 3rd-instar larvae of tobacco cutworm were further immersed in each solution for 10 seconds. The leaves and cutworms were air-dried and placed in each plastic cup having a diameter of 10 cm and a height of 4 cm. 48 hours later, the alive and dead was evaluated to obtain the LC50 (median lethal concentration) (ppm).

[1] = system: female adult CSMA-strain houseflies; assay: Test Example 2: topical application to thorax, mortality after 24 hours; format: in vivo, housefly; conditions: for Relative Efficacy (reference compound: 100): from LD50, housefly, reference = racemate with same X; for LD50 (median lethal dose): topical, 0.5 μl acetone solution to thorax, 24 hours
Protocol: as §2
The compounds of this invention, (1), (2), (3), (4) and (5) were diluted with acetone to a predetermined concentration, and 0.5 μl of each solution was topically applied to thorax of female adult CSMA-strain houseflies with a microsyringe. The flies were placed in a plastic cup having a diameter of 12 cm containing therein cotton absorbent impregnated with 3% sugar water. 24 hours later, the alive and dead was evaluated to determine the LD50 (median lethal dose) (μg/insect).

[2] = system: adult green rice leafhoppers; assay: Test Example 3: dust applied to rice seedlings, mortality after 24 hours; format: in vivo, green rice leafhopper; conditions: 0.5% dust, 2 kg/10 ares, 200 mmHg
Protocol: 0.5 part of each of the compounds of this invention, (1), (2), (3), (4) and (5) was dissolved in 20 parts of acetone. To the solution was added 99.5 parts of 300 mesh clay, and the mixture was thoroughly stirred. The acetone was distilled off to provide a 0.5% dust.
The dusts prepared from the compounds of this invention, (1), (2), (3), (4) and (5) in the procedures described in Formulation Example 2 were applied to rice seedlings planted in each 3 inch pot and 20 days old after seeding. A bell-jar duster was used to apply each dust at a pressure of 200 mmHg at a rate of 2 kg/10 ares. After the treatment, each pot was enclosed with a metal screen cage in which about 30 adult green rice leafhoppers were released.

carmine mites = assay: Test Example 4: emulsifiable concentrate applied to mite-infested potted kidney beans; format: in vivo, carmine mite; conditions: 10% emulsifiable concentrate diluted 500-fold, 10 ml/pot; 10 days
Protocol: as §1
10 to 15 female adult carmine mites were placed on each leaf of potted kidney beans (2-leaf stage) 9 days old after seeding. After standing in a constant temperature room at 27° C. for a week, a lot of mites in various growth stages were observed on the beans. Each of the emulsifiable concentrates prepared from the compounds of this invention (1) and (2) in the procedures described in Formulation Example 1 was diluted 500-fold with water and applied to the beans on a turntable at a rate of 10 ml/pot.

[3] = system: harmful insects and/or mites; assay: Insecticidal and/or acaricidal activity of optical isomers (general statement); format: in vivo; conditions: Aα-isomer, X = F versus other halogens

Row | SMILES | LC50 (tobacco cutworm) | Relative Efficacy (reference compound: 100) (tobacco cutworm) | Relative Efficacy (reference compound: 100) [1] | LD50 (median lethal dose) [1] | alive and dead evaluation of leafhoppers [2] | damage to mite-released kidney beans (carmine mites) | activity compared with other halogen-substituted compounds [3]
1 | CC(C)[C@H](C(=O)O[C@H](C#N)c1cccc(Oc2ccc(Br)cc2)c1)c1ccc(Cl)cc1 [Compound (5)] | 4.2 µg/mL (≈ 8.42 µM) | 476 | 444 | 0.018 μg/insect | completely killed | – | –
2 | CC(C)[C@H](C(=O)O[C@H](C#N)c1cccc(Oc2ccc(Cl)cc2)c1)c1ccc(Cl)cc1 [Compound (3)] | 3.9 µg/mL (≈ 8.58 µM) | 390 | 388 | 0.016 μg/insect | completely killed | – | –
3 | CC(C)C(C(=O)OC(C#N)c1cccc(Oc2ccc(Cl)cc2)c1)c1ccc(Cl)cc1 (racemic) [(b), reference compound] | 15.2 µg/mL (≈ 33.5 µM) | 100 | 100 | 0.062 μg/insect | – | – | –
4 | CC(C)[C@H](C(=O)OC(C#N)c1cccc(Oc2ccc(Br)cc2)c1)c1ccc(Cl)cc1 (stereo partly shown) [Compound (4)] | 9.5 µg/mL (≈ 19 µM) | 211 | 229 | 0.035 μg/insect | completely killed | – | –
5 | CC(C)C(C(=O)OC(C#N)c1cccc(Oc2ccc(Br)cc2)c1)c1ccc(Cl)cc1 (racemic) [(c), reference compound] | 20 µg/mL (≈ 40.1 µM) | 100 | 100 | 0.080 μg/insect | – | – | –
6 | CC(C)[C@H](C(=O)O[C@H](C#N)c1cccc(Oc2ccc(F)cc2)c1)c1ccc(Cl)cc1 [Compound (2)] | 1.2 µg/mL (≈ 2.74 µM) | 417 | 410 | 0.010 μg/insect | completely killed | little damaged | stronger activity than other halogen-substituted compounds
7 | CC(C)C(C(=O)OC(C#N)c1cccc(Oc2ccc(F)cc2)c1)c1ccc(Cl)cc1 (racemic) [Reference Compound (a), reference compound] | 5 µg/mL (≈ 11.4 µM) | 100 | 100 | 0.041 μg/insect | – | – | –
8 | CC(C)[C@H](C(=O)OC(C#N)c1cccc(Oc2ccc(F)cc2)c1)c1ccc(Cl)cc1 (stereo partly shown) [Compound (1)] | 2.3 µg/mL (≈ 5.25 µM) | 217 | 216 | 0.019 μg/insect | completely killed | little damaged | –
